According to patent publication US20230233569A1 (Revolution Medicines, Inc., priority 2020, published 2023):
Where two headings read alike, the source gives them in different places.

Key:
[1] = test system: AsPC-1 (K-Ras G12D); assay: CellTiter-Glo cell viability assay; format: cell-based; conditions: Homo sapiens, ASPC1, 120 h
Summary of the method: (§1)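 Percent-of-DMSO luminescence values (CellTiter-Glo, day 5, plates equilibrated ~30 minutes at ambient temperature) were curve-fitted using a 4-parameter logistic equation; compounds had been added straight into wells containing the cells.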

[2] = test system: NCI-H358 (K-Ras G12C); assay: CellTiter-Glo cell viability assay; format: cell-based; conditions: Homo sapiens, NCI-H358, 120 h
Summary of the method: as §1

[3] = test system: AsPC-1 (K-Ras G12D); assay: Potency assay: pERK; format: cell-based; conditions: Homo sapiens
[4] = target: KRAS G12V (Homo sapiens, UniProt P01116+P62937, G12V); assay: Ras-Raf disruption / FRET / MOA assay (BRAF RBD); format: biochemical; conditions: KRAS G12V FRET data IC50, Ras-Raf disruption, with Cyclophilin A
Summary of the method: (§2)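 Compound-induced Ras–Cyclophilin A ternary complex disrupting BRAF RBD binding, read as IC50 from reduced TR-FRET ratio relative to DMSO. Final: Ras-GMPPNP 12.5 nM, BRAF RBD 50 nM, Cyclophilin A 25 μM, top compound 30 μM (3-fold, 10 points); 3 h at 25 °C, then 1.5 h with detection antibodies.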

[5] = target: KRAS G12D (Homo sapiens, UniProt P01116+P62937, G12D); assay: Ras-Raf disruption / FRET / MOA assay (BRAF RBD); format: biochemical; conditions: KRAS G12D FRET data IC50, Ras-Raf disruption, with Cyclophilin A
Summary of the method: as §2

[6] = target: KRAS G13D (Homo sapiens, UniProt P01116+P62937, G13D); assay: Ras-Raf disruption / FRET / MOA assay (BRAF RBD); format: biochemical; conditions: KRAS G13D FRET data IC50, Ras-Raf disruption, with Cyclophilin A
Summary of the method: as §2

[7] = target: KRAS WT (Homo sapiens, UniProt P01116+P62937); assay: Ras-Raf disruption / FRET / MOA assay (BRAF RBD); format: biochemical; conditions: KRAS WT FRET data IC50, Ras-Raf disruption, with Cyclophilin A
Summary of the method: as §2

[8] = target: KRAS G12S (Homo sapiens, UniProt P01116+P62937, G12S); assay: Ras-Raf disruption / FRET / MOA assay (BRAF RBD); format: biochemical; conditions: KRAS G12S FRET data IC50, Ras-Raf disruption, with Cyclophilin A
Summary of the method: as §2

[9] = target: KRAS G13C (Homo sapiens, UniProt P01116+P62937, G13C); assay: Ras-Raf disruption / FRET / MOA assay (BRAF RBD); format: biochemical; conditions: KRAS G13C FRET data IC50, Ras-Raf disruption, with Cyclophilin A
Summary of the method: as §2

[10] = target: NRAS G12C (Homo sapiens, UniProt P01111+P62937, G12C); assay: Ras-Raf disruption / FRET / MOA assay (BRAF RBD); format: biochemical; conditions: NRAS G12C FRET data IC50, NRAS G12C
Summary of the method: as §2

[11] = target: KRAS G12C (Homo sapiens, UniProt P01116+P62937, G12C); assay: Ras-Raf disruption / FRET / MOA assay (BRAF RBD); format: biochemical; conditions: KRAS G12C FRET data IC50, Ras-Raf disruption, with Cyclophilin A
Summary of the method: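 TR-FRET read-out after 1.5 h with anti-His Eu-W1024 (10 nM) and anti-GST APC (50 nM), following 3 h at 25 °C of compound (top 30 μM, 3-fold, 10 points) with 25 μM Cyclophilin A, 12.5 nM GMPPNP-loaded K-Ras G12C and 50 nM BRAF RBD; IC50 reported.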

[12] = K-Ras G12D, 5-day treatment, read-out: AsPC-1 Cell Viability assay data IC50
[13] = K-Ras G12C, 5-day treatment, read-out: H358 Cell Viability assay data IC50
[14] = ASPC1, AsPC-1 KRAS G12D, read-out: pERK EC50
[15] = read-out: AsPC-1 Cell Viability assay data IC50, K-Ras G12D, 5-day treatment
[16] = read-out: H358 Cell Viability assay data IC50, K-Ras G12C, 5-day treatment

KRAS G13D, sequence (P01116 1-169 isoform P01116-2 G13D limits assumed): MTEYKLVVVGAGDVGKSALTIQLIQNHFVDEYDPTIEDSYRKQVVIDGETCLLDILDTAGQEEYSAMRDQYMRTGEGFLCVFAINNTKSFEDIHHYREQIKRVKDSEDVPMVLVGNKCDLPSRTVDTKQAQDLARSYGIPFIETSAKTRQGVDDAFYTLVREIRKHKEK
KRAS G13D, sequence (P62937 whole entry): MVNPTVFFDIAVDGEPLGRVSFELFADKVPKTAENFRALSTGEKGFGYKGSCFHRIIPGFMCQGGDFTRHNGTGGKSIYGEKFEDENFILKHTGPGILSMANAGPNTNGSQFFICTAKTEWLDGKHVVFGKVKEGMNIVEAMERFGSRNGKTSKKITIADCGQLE
KRAS G13C, sequence (P01116 1-169 isoform P01116-2 G13C limits assumed): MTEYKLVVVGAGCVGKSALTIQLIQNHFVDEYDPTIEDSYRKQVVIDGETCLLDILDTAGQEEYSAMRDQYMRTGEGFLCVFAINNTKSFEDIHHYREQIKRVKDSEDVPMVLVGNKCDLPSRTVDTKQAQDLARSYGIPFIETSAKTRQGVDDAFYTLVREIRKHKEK
KRAS G13C, sequence (P62937 whole entry): as the sequence (P62937 whole entry) above
KRAS G12V, sequence (P01116 1-169 isoform P01116-2 G12V limits assumed): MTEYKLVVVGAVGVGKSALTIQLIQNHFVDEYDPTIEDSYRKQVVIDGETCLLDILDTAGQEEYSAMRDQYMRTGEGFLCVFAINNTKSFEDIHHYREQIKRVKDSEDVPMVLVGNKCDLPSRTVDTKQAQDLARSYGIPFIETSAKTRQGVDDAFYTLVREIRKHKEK
KRAS G12V, sequence (P62937 whole entry): as the sequence (P62937 whole entry) above
KRAS G12C, sequence (P01116 1-169 isoform P01116-2 G12C limits assumed): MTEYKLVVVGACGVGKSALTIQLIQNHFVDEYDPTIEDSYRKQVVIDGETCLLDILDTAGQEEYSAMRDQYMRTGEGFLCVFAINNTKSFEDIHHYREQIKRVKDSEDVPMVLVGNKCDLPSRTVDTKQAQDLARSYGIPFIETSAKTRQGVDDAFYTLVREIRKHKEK
KRAS G12C, sequence (P62937 whole entry): as the sequence (P62937 whole entry) above
NRAS G12C, sequence (P01111 whole entry G12C): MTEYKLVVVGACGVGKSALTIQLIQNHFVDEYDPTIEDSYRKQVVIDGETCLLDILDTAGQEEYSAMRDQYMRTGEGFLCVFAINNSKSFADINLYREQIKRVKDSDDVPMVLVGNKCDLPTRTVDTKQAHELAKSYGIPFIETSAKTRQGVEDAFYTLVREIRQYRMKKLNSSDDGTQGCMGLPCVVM
NRAS G12C, sequence (P62937 whole entry): as the sequence (P62937 whole entry) above
KRAS WT, sequence (P01116 1-169 isoform P01116-2 limits assumed): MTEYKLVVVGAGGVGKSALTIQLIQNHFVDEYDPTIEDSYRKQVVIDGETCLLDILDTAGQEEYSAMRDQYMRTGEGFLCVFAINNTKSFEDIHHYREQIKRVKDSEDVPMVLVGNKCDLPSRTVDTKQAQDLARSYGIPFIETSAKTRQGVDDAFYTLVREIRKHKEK
KRAS WT, sequence (P62937 whole entry): as the sequence (P62937 whole entry) above
KRAS G12S, sequence (P01116 1-169 isoform P01116-2 G12S limits assumed): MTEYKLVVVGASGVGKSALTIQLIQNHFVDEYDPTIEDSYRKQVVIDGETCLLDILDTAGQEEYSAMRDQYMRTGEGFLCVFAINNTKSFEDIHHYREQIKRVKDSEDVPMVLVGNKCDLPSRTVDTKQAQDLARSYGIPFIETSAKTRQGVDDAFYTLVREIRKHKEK
KRAS G12S, sequence (P62937 whole entry): as the sequence (P62937 whole entry) above
KRAS G12D, sequence (P01116 1-169 isoform P01116-2 G12D limits assumed): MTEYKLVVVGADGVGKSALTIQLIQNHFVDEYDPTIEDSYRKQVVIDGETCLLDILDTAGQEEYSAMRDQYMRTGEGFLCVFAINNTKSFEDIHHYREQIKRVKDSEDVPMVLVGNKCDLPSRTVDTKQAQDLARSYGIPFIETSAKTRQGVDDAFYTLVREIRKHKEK
KRAS G12D, sequence (P62937 whole entry): as the sequence (P62937 whole entry) above

SMILES | IC50 [1, 12] [nM] | IC50 [2, 13] [nM] | EC50 [3, 14] [nM] | IC50 [4] [nM] | IC50 [5] [nM] | IC50 [6] [nM] | IC50 [7] [nM] | IC50 [8] [nM] | IC50 [9] [nM] | IC50 [10] [nM] | IC50 [1, 15] [nM] | IC50 [2, 16] [nM] | IC50 [11] [nM] | EC50 ([3]; ASPC1, read-out: pERK EC50) [nM]
CCn1c(-c2cccnc2[C@H](C)OC)c2c3cc(ccc31)-c1cc(O)cc(c1)C[C@H](NC(=O)[C@H](C(C)C)N(C)C(=O)[C@@H]1CO[C@H](C)CN1C(=O)[C@H]1CN1)C(=O)N1CCC[C@H](N1)C(=O)OCC(C)(C)C2 [Example 248] | 100 to 1000 | 10 to 100 | < 5000 | – | – | – | – | – | – | – | – | – | – | –
CCn1c(-c2cccnc2[C@H](C)OC)c2c3cc(ccc31)-c1cc(O)cc(c1)C[C@H](NC(=O)[C@H](C(C)C)N(C)C(=O)CN(C)C(=O)[C@H]1CN1C(C)C)C(=O)N1CCC[C@H](N1)C(=O)OCC(C)(C)C2 (stereo partly shown) [Example 142] | – | – | – | 100 to 1000 | 100 to 1000 | 100 to 1000 | 100 to 1000 | 10 to 100 | 10 to 100 | < 10 | 100 to 1000 | < 10 | < 10 | < 5000
CCn1c(-c2cnccc2COC)c2c3cc(ccc31)-c1cc(O)cc(c1)C[C@H](NC(=O)[C@H](C(C)C)N(C)C(=O)CN(C)C(=O)[C@H]1N[C@@H]1c1ccccc1)C(=O)N1CCC[C@H](N1)C(=O)OCC(C)(C)C2 [Example 12] | – | – | – | – | – | – | – | – | – | – | 100 to 1000 | 100 to 1000 | – | < 5000
CCn1c(-c2cnccc2COC)c2c3cc(ccc31)-c1cc(O)cc(c1)C[C@H](NC(=O)[C@H](C(C)C)N(C)C(=O)CN(C)C(=O)[C@H]1CN1Cc1ccccc1)C(=O)N1CCC[C@H](N1)C(=O)OCC(C)(C)C2 (stereo partly shown) [Example 9] | – | – | – | – | – | – | – | – | – | – | 1000 to 10000 | 10 to 100 | – | < 5000
CCC(C)N(C)C(=O)c1cncc(-c2c3c4cc(ccc4n2CC)-c2cc(O)cc(c2)C[C@H](NC(=O)[C@H](C(C)C)N(C)C(=O)CN(C)C(=O)[C@H]2CN2)C(=O)N2CCC[C@H](N2)C(=O)OCC(C)(C)C3)c1 (stereo partly shown) [Example 144] | – | – | – | – | – | – | – | – | – | – | 100 to 1000 | 10 to 100 | – | < 5000
CCn1c(-c2cnccc2COC)c2c3cc(ccc31)-c1cc(O)cc(c1)C[C@H](NC(=O)[C@H](C(C)C)N(C)C(=O)CN(C)C(=O)[C@H]1CN1)C(=O)N1CCC[C@H](N1)C(=O)OCC(C)(C)C2 [Example 7] | – | – | – | – | – | – | – | – | – | – | 100 to 1000 | 10 to 100 | – | < 5000
CCn1c(-c2cnccc2COC)c2c3cc(ccc31)-c1cc(O)cc(c1)C[C@H](NC(=O)[C@H](C(C)C)N(C)C(=O)CN(C)C(=O)[C@@H]1CN1Cc1ccccc1)C(=O)N1CCC[C@H](N1)C(=O)OCC(C)(C)C2 (stereo partly shown) [Example 10] | – | – | – | – | – | – | – | – | – | – | 1000 to 10000 | 10 to 100 | – | < 5000
CCn1c(-c2cccnc2[C@H](C)OC)c2c3cc(ccc31)-c1cc(O)cc(c1)C[C@H](NC(=O)[C@H](C(C)C)N(C)C(=O)CN(C)C(=O)[C@@H]1N[C@@H]1C1CC1)C(=O)N1CCC[C@H](N1)C(=O)OCC(C)(C)C2 [Example 133] | – | – | – | 10 to 100 | 10 to 100 | 10 to 100 | 10 to 100 | 10 to 100 | 10 to 100 | 10 to 100 | 10 to 100 | 10 to 100 | 10 to 100 | < 5000
CCn1c(-c2cccnc2[C@H](C)OC)c2c3cc(ccc31)-c1cc(O)cc(c1)C[C@H](NC(=O)[C@H](C(C)C)N(C)C(=O)[C@@]1(C)CCCN1C(=O)[C@H]1CN1)C(=O)N1CCC[C@H](N1)C(=O)OCC(C)(C)C2 [Example 239] | 100 to 1000 | 10 to 100 | < 5000 | – | – | – | – | – | – | – | – | – | – | –
CCn1c(-c2cccnc2[C@H](C)OC)c2c3cc(ccc31)-c1cc(O)cc(c1)C[C@H](NC(=O)[C@H](C(C)C)N(C)C(=O)[C@H](C)N(C)C(=O)[C@H]1CN1)C(=O)N1CCC[C@H](N1)C(=O)OCC(C)(C)C2 [Example 102] | – | – | – | 100 to 1000 | 100 to 1000 | 100 to 1000 | 10 to 100 | 100 to 1000 | 10 to 100 | 10 to 100 | 100 to 1000 | 10 to 100 | 10 to 100 | < 5000
CCn1c(-c2cccnc2[C@H](C)OC)c2c3cc(ccc31)-c1cc(O)cc(c1)C[C@H](NC(=O)[C@H](C(C)C)N(C)C(=O)CN(C)C(=O)[C@H]1CN1)C(=O)N1CCC[C@H](N1)C(=O)OCC(C)(C)C2 (single isomer, unassigned) [Example 42A] | – | – | – | 10 to 100 | 10 to 100 | 10 to 100 | 10 to 100 | 10 to 100 | < 10 | < 10 | – | < 10 | < 10 | < 5000
CCn1c(-c2cnccc2COC)c2c3cc(ccc31)-c1cc(O)cc(c1)C[C@H](NC(=O)[C@H](C(C)C)N(C)C(=O)CN(C)C(=O)[C@@H]1N[C@@H]1C1CC1)C(=O)N1CCC[C@H](N1)C(=O)OCC(C)(C)C2 [Example 103] | – | – | – | – | – | – | – | – | – | – | 100 to 1000 | 100 to 1000 | – | < 5000
CCn1c(-c2cccnc2[C@H](C)OC)c2c3cc(ccc31)-c1cc(O)cc(c1)C[C@H](NC(=O)[C@H](C(C)C)N(C)C(=O)[C@@H]1CO[C@H](C)CN1C(=O)[C@@H]1CN1)C(=O)N1CCC[C@H](N1)C(=O)OCC(C)(C)C2 [Example 249] | 10 to 100 | 10 to 100 | < 5000 | – | – | – | – | – | – | – | – | – | – | –
CCn1c(-c2cnccc2COC)c2c3cc(ccc31)-c1cc(O)cc(c1)C[C@H](NC(=O)[C@H](C(C)C)N(C)C(=O)CN(C)C(=O)[C@@H]1CN1)C(=O)N1CCC[C@H](N1)C(=O)OCC(C)(C)C2 [Example 8] | – | – | – | – | – | – | – | – | – | – | 1000 to 10000 | 10 to 100 | – | < 5000
CCn1c(-c2cccnc2[C@H](C)OC)c2c3cc(ccc31)-c1cc(O)cc(c1)C[C@H](NC(=O)[C@H](C(C)C)N(C)C(=O)[C@]1(C)CCCN1C(=O)[C@H]1CN1)C(=O)N1CCC[C@H](N1)C(=O)OCC(C)(C)C2 [Example 243] | 100 to 1000 | 100 to 1000 | < 5000 | – | – | – | – | – | – | – | – | – | – | –
CCn1c(-c2cnccc2COC)c2c3cc(ccc31)-c1cc(O)cc(c1)C[C@H](NC(=O)[C@H](C(C)C)N(C)C(=O)CN(C)C(=O)[C@@H]1N[C@H]1c1ccccc1)C(=O)N1CCC[C@H](N1)C(=O)OCC(C)(C)C2 [Example 11] | – | – | – | – | – | – | – | – | – | – | 1000 to 10000 | 100 to 1000 | – | < 5000
